Each structure is given as a SMILES string.

Here are results for 11 compounds from patent publication EP3807270B1, “NOVEL HETEROARYL HETEROCYCLYL COMPOUNDS FOR THE TREATMENT OF AUTOIMMUNE DISEASE” (F. Hoffmann-La Roche AG, priority 2018, dated 2019).

A short description of series [1]: Human microsome stability assay. Conditions: 1 µM test compound, 0.5 mg/mL liver microsomal protein, 37 °C. Type of series: in vitro ADME. An outline of the steps: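 Test compound at 1 µM was incubated with human liver microsomes (0.5 mg/mL protein) and an NADPH-regenerating system in 100 mM potassium phosphate, pH 7.4, at 37 °C. Samples were taken at 0–30 min and quenched with acetonitrile. Remaining compound was quantified by LC-MS/MS, with no-NADPH controls.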
A general note: Liver microsomes are a subcellular fraction often used to study metabolism.

Series [2] addresses T1, human TLR8 (Homo sapiens, UniProt Q9NR97).
T1 construct: host or cells: HEK293 (HEK-Blue)
T1 sequence (Q9NR97 27-1041): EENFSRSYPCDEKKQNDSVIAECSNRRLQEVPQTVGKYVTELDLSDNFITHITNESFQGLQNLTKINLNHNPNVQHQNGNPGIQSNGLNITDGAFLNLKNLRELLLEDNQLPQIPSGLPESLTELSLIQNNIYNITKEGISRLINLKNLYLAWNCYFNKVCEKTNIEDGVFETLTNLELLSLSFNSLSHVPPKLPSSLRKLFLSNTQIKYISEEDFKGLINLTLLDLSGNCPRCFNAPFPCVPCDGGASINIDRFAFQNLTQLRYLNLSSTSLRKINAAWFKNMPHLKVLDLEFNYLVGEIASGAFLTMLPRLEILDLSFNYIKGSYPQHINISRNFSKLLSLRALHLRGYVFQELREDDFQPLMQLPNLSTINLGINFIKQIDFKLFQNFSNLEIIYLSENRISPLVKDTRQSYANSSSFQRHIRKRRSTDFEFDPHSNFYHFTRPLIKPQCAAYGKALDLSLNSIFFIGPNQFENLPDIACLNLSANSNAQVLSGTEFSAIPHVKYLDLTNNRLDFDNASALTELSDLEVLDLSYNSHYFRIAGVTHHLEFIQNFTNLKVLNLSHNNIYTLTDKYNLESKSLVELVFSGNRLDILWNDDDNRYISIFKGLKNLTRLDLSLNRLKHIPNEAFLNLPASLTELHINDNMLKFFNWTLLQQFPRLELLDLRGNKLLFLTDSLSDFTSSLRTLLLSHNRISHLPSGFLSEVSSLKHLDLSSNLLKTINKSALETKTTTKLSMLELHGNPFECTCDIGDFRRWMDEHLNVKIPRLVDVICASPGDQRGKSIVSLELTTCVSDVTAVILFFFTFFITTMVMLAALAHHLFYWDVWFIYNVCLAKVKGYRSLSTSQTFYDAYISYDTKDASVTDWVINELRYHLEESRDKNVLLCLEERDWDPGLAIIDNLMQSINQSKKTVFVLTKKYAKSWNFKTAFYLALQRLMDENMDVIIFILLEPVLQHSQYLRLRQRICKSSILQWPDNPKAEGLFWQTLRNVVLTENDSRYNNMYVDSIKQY
Put plainly: HEK293-Blue-hTLR-8 cells assay (SEAP reporter, R848 stimulation). Type of series: cell-based. Particulars: HEK293-Blue-hTLR8 cells, R848, 20 hrs; read-out: HEK/hTLR8 IC50. An outline of the steps:
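HEK293-Blue-hTLR8 cells (NF-κB/AP-1-driven SEAP) in DMEM/10% FBS were treated with serially diluted compound (1% DMSO final) plus R848 for 20 hrs at 37 °C. Supernatant SEAP was measured with QUANTI-Blue after 2 hrs at 37 °C, absorbance 620-655 nm; antagonism seen as reduced reporter.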

On to `C[C@@H]1CN(c2ccc(C#N)c3ncccc23)C[C@H](CN2CCN(c3cnc4c(c3)CNC4)CC2)O1` [Example 10, 5-[(2S,6R)-2-[[4-(6,7-dihydro-5H-pyrrolo[3,4-b]pyridin-3-yl)piperazin-1-yl]methyl]-6-methyl-morpholin-4-yl] quinoline-8-carbonitrile], for which, in series [1], the “Clearance of Human microsome” value was 8.61 mL/min/kg. For the same compound, the IC50 in series [2] was determined as 23 nM.

Take `[2H]c1nc2c(C#N)ccc(N3C[C@H](CN4CCN(c5ccc6c(n5)CN[C@@H]6C)CC4)O[C@H](C)C3)c2nc1[2H]` (single isomer, unassigned) [Example 97]: the “Clearance of Human microsome” value in series [1] was 6.15 mL/min/kg. Besides, in series [2], the IC50 amounted to 4 nM.

With `[2H]c1nc2c(C#N)ccc(N3C[C@H](CN4CCN(c5ccc6c(n5)CN[C@H]6C)CC4)O[C@H](C)C3)c2nc1[2H]` (single isomer, unassigned) [Example 96], the “Clearance of Human microsome” value in series [1] is listed as 6.23 mL/min/kg. Also, in series [2], the IC50 was 3 nM.

As for `[2H]c1ccc2c(N3C[C@H](CN4CCN(c5ccc6c(n5)CN[C@H]6C)CC4)O[C@H](C)C3)ccc(C#N)c2n1` (single isomer, unassigned) [Example 99], the “Clearance of Human microsome” value in series [1] is reported as 6.32 mL/min/kg. In series [2], the IC50 turned out to be 5 nM.

In the case of `[2H]c1nc2c(C#N)ccc(N3C[C@H](CN4CCN(c5cc6c(cn5)[C@@H](C)NCC6)CC4)O[C@H](C)C3)c2nc1[2H]` (single isomer, unassigned) [Example 95], the “Clearance of Human microsome” value in series [1] is listed as 7.13 mL/min/kg. For the same compound, in series [2], the IC50 worked out at 3 nM.

As for `C[C@@H]1CN(c2ccc(C#N)c3nccnc23)C[C@H](CN2CCN(c3cc4c(cn3)CCN[C@H]4C)CC2)O1` (single isomer, unassigned) [Example 88], the IC50 in series [2] is 2 nM.

As to `C[C@@H]1CN(c2ccc(C#N)c3nccnc23)C[C@H](CN2CCN(c3cc4c(cn3)CCN[C@@H]4C)CC2)O1` (single isomer, unassigned) [Example 87], the “Clearance of Human microsome” value in series [1] turned out to be 8.91 mL/min/kg. The IC50 in series [2] worked out at 2 nM.

With `C[C@@H]1CN(c2ccc(C#N)c3nccnc23)C[C@H](CN2CCN(c3cc4c(cn3)[C@@H](C)NCC4)CC2)O1` (single isomer, unassigned) [Example 86], the “Clearance of Human microsome” value in series [1] is 7.69 mL/min/kg. Also, the IC50 in series [2] was found to be 2 nM.

With `[2H]c1nc2c(C#N)ccc(N3C[C@H](CN4CCN(c5cc6c(cn5)[C@H](C)NCC6)CC4)O[C@H](C)C3)c2nc1[2H]` (single isomer, unassigned) [Example 94], in series [2], the IC50 worked out at 2 nM.

Regarding `[2H]c1ccc2c(N3C[C@H](CN4CCN(c5ccc6c(n5)CN[C@@H]6C)CC4)O[C@H](C)C3)ccc(C#N)c2n1` (single isomer, unassigned) [Example 98], the “Clearance of Human microsome” value in series [1] came out at 8.02 mL/min/kg. Also, the IC50 in series [2] turned out to be 5 nM.

Regarding `C[C@@H]1CN(c2ccc(C#N)c3ncccc23)C[C@H](CN2CCN(c3ccc4c(c3)CNCC4)CC2)O1` [Example 9, 5-[(2R,6S)-2-methyl-6-[[4-(1,2,3,4-tetrahydroisoquinolin-7-yl)piperazin-1-yl]methyl]morpholin-4-yl]quinoline-8-carbonitrile], in series [1], the “Clearance of Human microsome” value is 6.74 mL/min/kg. The IC50 in series [2] was 15 nM.
